# Source: BindingDB's records for doi:10.1021/jm00010a025 (Merck Sharp & Dohme Research Laboratories, 1995)
# Assays:
# [1] = Binding activity against 5-hydroxytryptamine 3 receptor from rat cortex homogenate using [3H]-Q-ICS 205-930 as radioligand.
# [2] = Binding activity against 5-hydroxytryptamine 2C receptor from pig cortex membrane using [3H]mesulergine as radioligand.
# [3] = Binding activity against 5-hydroxytryptamine 3 receptor from rat cortex homogenate using [3H]-Q-ICS 205-930 as radioligand.; remark: listed apart in the source
# [4] = Binding activity against 5-hydroxytryptamine 3 receptor from rat cortex homogenate using [3H]-Q-ICS 205-930 as radioligand; NA Not Available
Structure (SMILES),IC50 [1] [nM],IC50 [2] [µM],IC50 [3] [nM],IC50 [4] [nM]
CCn1nnnc1Cc1ccc2[nH]cc(CCN(C)C)c2c1,25.1,> 10,–,–
CN(C)CCc1c[nH]c2ccc(Cc3nnn[nH]3)cc12,3980,> 10,–,–
CN(C)CCc1c[nH]c2ccc(Cc3nnn(C)n3)cc12,79.4,–,–,–
CCn1nnc(Cc2ccc3[nH]cc(CCN(C)C)c3c2)n1,126,–,–,–
Cc1nccn1Cc1ccc2[nH]cc(CCN(C)C)c2c1,63.1,3.16,–,–
CN(C)CCc1c[nH]c2ccc(Cn3ccnc3)cc12,–,3.98,31.6,–
CN(C)CCc1c[nH]c2ccc(Cc3nnnn3C)cc12,25.1,–,–,–
CN(C)CCc1c[nH]c2ccc(Cn3ncnn3)cc12,39.8,1,–,–
CN(C)CCc1c[nH]c2ccc(Cc3nncn3C)cc12,25.1,–,–,–
Cc1nccn1-c1ccc2[nH]cc(CCN(C)C)c2c1,7.94,–,–,–
CN(C)CCc1c[nH]c2ccc(Cn3ccnn3)cc12,–,–,–,50.1
CN(C)CCc1c[nH]c2ccc(Cc3ncnn3C)cc12,–,> 10,100,–
CN(C)CCc1c[nH]c2ccc(Cn3cnnn3)cc12,39.8,2,–,–
